Experimental data from patent publication US6376497B1, “Antifungal azole derivatives having a fluorinated vinyl group and process for preparing same” (Korea Research Institute of Chemical Technology, priority 1999, dated 2002).
In brackets after ≈: the same amount, converted by molar mass.

Key:
Assay in all cases: In vitro antifungal activity, microbroth dilution MIC
Type in all cases: cell-based
[1] = tested on: Candida parapsitosis A. 7330; conditions: C. parapsitosis A. 7330, RPMI-1640, 35° C., 4 to 48 hours
In short: (§1)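 Broth microdilution adapted from NCCLS M27, in RPMI-1640 with 0.165 M MOPS, pH 7.0. Yeast or mould inoculum at 2×10^3 CFU/ml was mixed 1:1 with DMSO-derived compound solutions (200 to 0.10 μg/ml before mixing) and incubated at 35 °C for 4 to 48 h. MIC was the concentration showing no growth.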

[2] = tested on: Candida tropicalis A. 13803; conditions: C. tropicalis A. 13803, RPMI-1640, 35° C., 4 to 48 hours
In short: as §1

[3] = tested on: Candida albicans IFO. 1385; conditions: C. albicans IFO. 1385, RPMI-1640, 35° C., 4 to 48 hours
In short: as §1

[4] = tested on: Torulopsis glabrata B. 16205; conditions: T. glabrata B. 16205, RPMI-1640, 35° C., 4 to 48 hours
In short: as §1

[5] = tested on: Candida albicans A. 10231; conditions: C. albicans A. 10231, RPMI-1640, 35° C., 4 to 48 hours
In short: as §1

[6] = tested on: Trichophyton mentagrophytes B. 32663; conditions: T. mentagrophytes B. 32663, RPMI-1640, 35° C., 4 to 48 hours
In short: as §1

[7] = tested on: Cryptococcus neoformans B. 42419; conditions: Cry. neoformans B. 42419, RPMI-1640, 35° C., 4 to 48 hours
In short: as §1

Candida krusei K. 11655 = conditions: C. krusei K. 11655, RPMI-1640, 35° C., 4 to 48 hours
In short: as §1

[8] = tested on: Candida pseudotropicalis K. 11658; conditions: C. pseudotropicalis K. 11658, RPMI-1640, 35° C., 4 to 48 hours
In short: as §1

[9] = tested on: Cryptococcus neoformans IFM. 40092; conditions: Cry. neoformans IFM. 40092, RPMI-1640, 35° C., 4 to 48 hours
In short: as §1

[10] = tested on: Aspergillus furnigatus B. 19119; conditions: A furnigatus B. 19119, RPMI-1640, 35° C., 4 to 48 hours
In short: as §1

[11] = tested on: Cryptococcus neoformans A. 34144; conditions: Cry. neoformans A. 34144, RPMI-1640, 35° C., 4 to 48 hours
In short: as §1

Candida albicans C1-2 = conditions: C. albicans C1-2, RPMI-1640, 35° C., 4 to 48 hours
In short: as §1

[12] = tested on: Aspergillus niger A. 16404; conditions: A. niger A. 16404, RPMI-1640, 35° C., 4 to 48 hours
In short: as §1

[13] = tested on: Trichophyton mentagrophytes A. 9129; conditions: T. mentagrophytes A. 9129, RPMI-1640, 35° C., 4 to 48 hours
In short: as §1

Cc1cccc(C=C(F)OCC2COC(Cn3ccnc3)(c3ccc(Cl)cc3Cl)O2)c1 (stereo not drawn) [Ex. 2]
Minimal inhibitory concentration (MIC) [1]: 12.5 µg/mL (≈ 27 µM)
Minimal inhibitory concentration (MIC) [2]: 25.0 µg/mL (≈ 54 µM)
Minimal inhibitory concentration (MIC) [3]: 0.78 µg/mL (≈ 1.68 µM)
Minimal inhibitory concentration (MIC) [4]: 6.25 µg/mL (≈ 13.5 µM)
Minimal inhibitory concentration (MIC) [5]: 6.25 µg/mL (≈ 13.5 µM)
Minimal inhibitory concentration (MIC) [6]: 1.56 µg/mL (≈ 3.37 µM)
Minimal inhibitory concentration (MIC) [7]: 3.13 µg/mL (≈ 6.76 µM)
Minimal inhibitory concentration (MIC) (Candida krusei K. 11655): 12.5 µg/mL (≈ 27 µM)
Minimal inhibitory concentration (MIC) [8]: 12.5 µg/mL (≈ 27 µM)
Minimal inhibitory concentration (MIC) [9]: 1.56 µg/mL (≈ 3.37 µM)
Minimal inhibitory concentration (MIC) [10]: 3.13 µg/mL (≈ 6.76 µM)
Minimal inhibitory concentration (MIC) [11]: 3.13 µg/mL (≈ 6.76 µM)
Minimal inhibitory concentration (MIC) (Candida albicans C1-2): 6.25 µg/mL (≈ 13.5 µM)
Minimal inhibitory concentration (MIC) [12]: 3.13 µg/mL (≈ 6.76 µM)
Minimal inhibitory concentration (MIC) [13]: 1.56 µg/mL (≈ 3.37 µM)

Cc1ccc(C=C(F)OCC2COC(Cn3ccnc3)(c3ccc(Cl)cc3Cl)O2)cc1 (stereo not drawn) [Ex. 3]
Minimal inhibitory concentration (MIC) [1]: 6.25 µg/mL (≈ 13.5 µM)
Minimal inhibitory concentration (MIC) [2]: 25.0 µg/mL (≈ 54 µM)
Minimal inhibitory concentration (MIC) [3]: 0.78 µg/mL (≈ 1.68 µM)
Minimal inhibitory concentration (MIC) [4]: 3.13 µg/mL (≈ 6.76 µM)
Minimal inhibitory concentration (MIC) [5]: 12.5 µg/mL (≈ 27 µM)
Minimal inhibitory concentration (MIC) [6]: 1.56 µg/mL (≈ 3.37 µM)
Minimal inhibitory concentration (MIC) [7]: 3.13 µg/mL (≈ 6.76 µM)
Minimal inhibitory concentration (MIC) (Candida krusei K. 11655): 6.25 µg/mL (≈ 13.5 µM)
Minimal inhibitory concentration (MIC) [8]: 6.25 µg/mL (≈ 13.5 µM)
Minimal inhibitory concentration (MIC) [9]: 1.56 µg/mL (≈ 3.37 µM)
Minimal inhibitory concentration (MIC) [10]: 3.13 µg/mL (≈ 6.76 µM)
Minimal inhibitory concentration (MIC) [11]: 0.39 µg/mL (≈ 0.842 µM)
Minimal inhibitory concentration (MIC) (Candida albicans C1-2): 25.0 µg/mL (≈ 54 µM)
Minimal inhibitory concentration (MIC) [12]: 3.13 µg/mL (≈ 6.76 µM)
Minimal inhibitory concentration (MIC) [13]: 1.56 µg/mL (≈ 3.37 µM)

CCc1ccc(C=C(F)OCC2COC(Cn3ccnc3)(c3ccc(Cl)cc3Cl)O2)cc1 (stereo not drawn) [Ex. 4]
Minimal inhibitory concentration (MIC) [1]: 12.5 µg/mL (≈ 26.2 µM)
Minimal inhibitory concentration (MIC) [2]: 12.5 µg/mL (≈ 26.2 µM)
Minimal inhibitory concentration (MIC) [3]: 1.56 µg/mL (≈ 3.27 µM)
Minimal inhibitory concentration (MIC) [4]: 6.25 µg/mL (≈ 13.1 µM)
Minimal inhibitory concentration (MIC) [5]: 12.5 µg/mL (≈ 26.2 µM)
Minimal inhibitory concentration (MIC) [6]: 1.56 µg/mL (≈ 3.27 µM)
Minimal inhibitory concentration (MIC) [7]: 3.13 µg/mL (≈ 6.56 µM)
Minimal inhibitory concentration (MIC) (Candida krusei K. 11655): 6.25 µg/mL (≈ 13.1 µM)
Minimal inhibitory concentration (MIC) [8]: 6.25 µg/mL (≈ 13.1 µM)
Minimal inhibitory concentration (MIC) [9]: 1.56 µg/mL (≈ 3.27 µM)
Minimal inhibitory concentration (MIC) [10]: 6.25 µg/mL (≈ 13.1 µM)
Minimal inhibitory concentration (MIC) [11]: 3.13 µg/mL (≈ 6.56 µM)
Minimal inhibitory concentration (MIC) (Candida albicans C1-2): 6.25 µg/mL (≈ 13.1 µM)
Minimal inhibitory concentration (MIC) [12]: 6.25 µg/mL (≈ 13.1 µM)
Minimal inhibitory concentration (MIC) [13]: 3.13 µg/mL (≈ 6.56 µM)

Cc1ccc(C=C(F)OCC2COC(Cn3ccnc3)(c3ccc(Cl)cc3Cl)O2)cc1C (stereo not drawn) [Ex. 5]
Minimal inhibitory concentration (MIC) [1]: 12.5 µg/mL (≈ 26.2 µM)
Minimal inhibitory concentration (MIC) [2]: 12.5 µg/mL (≈ 26.2 µM)
Minimal inhibitory concentration (MIC) [3]: 0.78 µg/mL (≈ 1.63 µM)
Minimal inhibitory concentration (MIC) [4]: 6.25 µg/mL (≈ 13.1 µM)
Minimal inhibitory concentration (MIC) [5]: 12.5 µg/mL (≈ 26.2 µM)
Minimal inhibitory concentration (MIC) [6]: 3.13 µg/mL (≈ 6.56 µM)
Minimal inhibitory concentration (MIC) [7]: 3.13 µg/mL (≈ 6.56 µM)
Minimal inhibitory concentration (MIC) (Candida krusei K. 11655): 12.5 µg/mL (≈ 26.2 µM)
Minimal inhibitory concentration (MIC) [8]: 12.5 µg/mL (≈ 26.2 µM)
Minimal inhibitory concentration (MIC) [9]: 1.56 µg/mL (≈ 3.27 µM)
Minimal inhibitory concentration (MIC) [10]: 6.25 µg/mL (≈ 13.1 µM)
Minimal inhibitory concentration (MIC) [11]: 3.13 µg/mL (≈ 6.56 µM)
Minimal inhibitory concentration (MIC) (Candida albicans C1-2): 12.5 µg/mL (≈ 26.2 µM)
Minimal inhibitory concentration (MIC) [12]: 6.25 µg/mL (≈ 13.1 µM)
Minimal inhibitory concentration (MIC) [13]: 3.13 µg/mL (≈ 6.56 µM)
